Values quoted from earlier work in PMC5488394, “30 YEARS OF THE MINERALOCORTICOID RECEPTOR: Mineralocorticoid receptor antagonists: 60 years of research and development” (The Journal of Endocrinology, 2017).
Where two headings read alike, the source gives them in different places.

Experiments:
[1] = test system: Dahl salt-sensitive hypertensive rats; parameters: method as in Arai et al. 2015b; conditions: ref Arai et al. 2015b, cited from earlier work; for cardiorenal protection: 100 mg/kg
[2] = test system: MR over other steroid hormone receptors; parameters: method as in Arai et al. 2015a; conditions: in vitro; ref Arai et al. 2015a; cited from earlier work
human MR = test system: human MR; parameters: method as in Arai et al. 2015a; conditions: ref Arai et al. 2015a; read-out: IC50, block of aldosterone-induced transcriptional activation of human MR; cited from earlier work
DOCA/salt-loading rats = conditions: cited from earlier work
[3] = test system: estrogen-primed immature rabbits; parameters: method as in Hertz & Tullner 1958; conditions: Clauberg assay; ref Hertz & Tullner 1958; cited from earlier work
[4] = parameters: method as in Liddle 1957; conditions: patient with congestive heart failure and patient with Addison's disease; ref Liddle 1957; cited from earlier work
[5] = test system: mineralocorticoid-dependent sodium retention; conditions: cited from earlier work
aldosterone receptor = test system: aldosterone receptor; parameters: method as in Claire et al. 1979; conditions: ref Claire et al. 1979; cited from earlier work
[6] = test system: rat renal cytoplasmatic MR; parameters: method as in Casals-Stenzel et al. 1984; conditions: ref Casals-Stenzel et al. 1984; cited from earlier work
[7] = cited from earlier work
progesterone receptor = test system: progesterone receptor; parameters: method as in Laurent et al. 1983; conditions: estrogen-primed rabbit uterus; ref Laurent et al. 1983; cited from earlier work
urinary Na+/K+ ratio = test system: urinary Na+/K+ ratio; parameters: method as in Casals-Stenzel et al. 1984; conditions: rats, on average; ref Casals-Stenzel et al. 1984; cited from earlier work
rat androgen receptor = test system: rat androgen receptor; parameters: method as in Laurent et al. 1983; conditions: ref Laurent et al. 1983; cited from earlier work
MR = test system: MR; parameters: method as in Losert et al. 1985; conditions: ref Losert et al. 1985; cited from earlier work
S810L MR mutant = test system: S810L MR mutant; parameters: method as in Geller et al. 2000, Amazit et al. 2015; conditions: ref Geller et al. 2000, Amazit et al. 2015; cited from earlier work
[8] = radioactively labeled, rats; ref Kolkhof & Borden 2012; cited from earlier work
human plasma proteins = conditions: cited from earlier work
[9] = cited from earlier work; remark: listed apart in the source
[10] = parameters: method as in de Gasparo et al. 1989; conditions: fludrocortisone challenge, healthy volunteers; 50 mg vs 25 mg spironolactone; ref de Gasparo et al. 1989; cited from earlier work
[11] = parameters: method as in Weinberger et al. 2002; conditions: 100 mg OD or 50 mg BID, hypertensive patients; ref Weinberger et al. 2002; cited from earlier work
[12] = ref Pitt et al. 2003, cited from earlier work
[13] = cited from earlier work; for mean half-life of spironolactone metabolite: healthy volunteers; for peak absolute plasma concentration / peak relative plasma concentration: steady state after oral 100 mg spironolactone per day
[14] = parameters: method as in Pitt et al. 1999; conditions: low dose on top of standard of care; ref Pitt et al. 1999; cited from earlier work
rats = conditions: cited from earlier work
[15] = parameters: method as in Kolkhof & Borden 2012; conditions: mice; ref Kolkhof & Borden 2012; cited from earlier work
[16] = test system: aldosterone-induced cardiac necrosis; parameters: method as in Selye 1960; conditions: rats; ref Selye 1960; cited from earlier work
dogs and monkeys = conditions: ref Lumb et al. 1978; cited from earlier work
[17] = single oral dose 50 mg, healthy subjects, ref Thosar et al. 2003
[18] = ref Karim 1978, Garthwaite & McMahon 2004

## Cc1c(C(=O)Nc2ccc(S(C)(=O)=O)cc2)cn(CCO)c1-c1ccccc1C(F)(F)F [esaxerenone, (5S)-1-(2-hydroxyethyl)-4-methyl-N-[4-(methylsulfonyl)phenyl]-5-[2-(trifluoromethyl)phenyl]-1H-pyrrole-3-carboxamide]
[1]; chronic treatment, 0.5 mg/kg equivalent to spironolactone or eplerenone 100 mg/kg
  antihypertensive effect: dose-dependent antihypertensive effect
[1]
  reduction of proteinuria and renal hypertrophy, potency vs spironolactone and eplerenone: superior potency
[2]
  selectivity for MR over other steroid hormone receptors: ≥ 1000 fold
Human MR
  IC50: 3.7 nM
DOCA/salt-loading rats; DOCA/salt-loading rats, ref Arai et al. 2015a
  antihypertensive activity vs spironolactone or eplerenone: more pronounced antihypertensive activity
DOCA/salt-loading rats; ref Arai et al. 2016
  effect on hypertension and renal injury in DOCA rats: not only prevented but also ameliorated

## C[C@]12CCC(=O)C=C1CC[C@@H]1[C@@H]2CC[C@@]2(C)[C@H]1CC[C@@]21CCC(=O)O1 [SC-5233, 3-(3-oxo-17β-hydroxy-4-androsten-17α-yl)propionic acid γ-lactone]
[3]
  in vivo progestational activity: substantial in vivo progestational activity
[4]
  natriuretic activity in patients: natriuretic activity
[5]; strictly dependent on presence of a mineralocorticoid, ref Kagawa et al. 1959
  antagonistic efficacy in mineralocorticoid-dependent models: convincing antagonistic efficacy

## C[C@]12CCC(=O)C=C1[C@@H]1C[C@@H]1[C@@H]1[C@@H]2CC[C@@]2(C)[C@H]1CC[C@@]21CCC(=O)O1 [prorenone]
Aldosterone receptor
  effect on nuclear translocation of the aldosterone receptor: blocks nuclear translocation

## C[C@]12C=CC(=O)C=C1[C@@H]1C[C@@H]1[C@H]1[C@@H]3[C@@H]4C[C@@H]4[C@@]4(CCC(=O)O4)[C@@]3(C)CC[C@@H]12 [spirorenone]
[6]
  affinity for rat renal cytoplasmatic MR relative to spironolactone: 0.73 times
[7]; single dose, healthy individuals, ref Seifert et al. 1982
  potency relative to spironolactone, urinary sodium excretion: at least 4 times
Progesterone receptor
  affinity for the progesterone receptor vs spironolactone: higher affinity
Urinary Na+/K+ ratio
  in vivo activity on urinary Na+/K+ ratio relative to spironolactone: 8.6 times
Rat androgen receptor
  affinity for the rat androgen receptor: practically no affinity

## C[C@]12CC[C@H]3[C@@H](CCC4=CC(=O)CC[C@@H]43)[C@@H]1CC[C@@]21CCC(=O)O1 [SC-8109]
[3]
  in vivo progestational activity: substantial in vivo progestational activity
[5]; adrenalectomized rats, ref Kagawa et al. 1957
  potency on mineralocorticoid-dependent sodium retention relative to SC-5233: more potent than SC-5233

## C[C@]12CCC(=O)C=C1[C@@H]1C[C@@H]1[C@H]1[C@@H]3[C@@H]4C[C@@H]4[C@@]4(CCC(=O)O4)[C@@]3(C)CC[C@@H]12 [drospirenone, 1,2-dihydro-spirorenone]
MR
  potency relative to spironolactone on the MR in rats: eight times more potent

## CC(=O)[C@H]1CC[C@H]2[C@@H]3CCC4=CC(=O)CC[C@]4(C)[C@H]3CC[C@]12C [Progesterone]
S810L MR mutant
  effect on S810L MR mutant: paradoxically activate

## COC(=O)[C@@H]1CC2=CC(=O)CC[C@]2(C)[C@@]23O[C@@H]2C[C@@]2(C)[C@@H](CC[C@@]24CCC(=O)O4)[C@H]13 [eplerenone, 9-11α-epoxymexrenone]
[8]
  accumulation of drug equivalent concentration in kidneys compared with heart tissue: ≥ 3 fold
[1]
  cardiorenal protection: only partial cardiorenal protection
Human plasma proteins; ref Inspra Prescribing Information 2002
  bound fraction (plasma proteins): about 50%
[9]; ref Kolkhof & Borden 2012
  active metabolites: no active metabolites
[9]; [17]
  duration of natriuretic effect: ~ 10 h
  half-life: 2.9 h
[9]; steady state after multiple doses of 100 mg, ref Cook et al. 2003
  half-life: 4 h
Human MR
  IC50: 970 nM
[10]
  natriuretic activity vs spironolactone: rough equi-efficacy
[11]
  efficacy compared to 50 mg spironolactone twice daily: 50–75%
[12]; P = 0.002
  incidence of serious hyperkalemia (≥6 mmol/L) vs placebo: significantly higher
[12]; vs placebo, mean follow-up 16 months
  primary endpoint, death from any cause or hospitalization for CV events: significantly reduced
S810L MR mutant
  effect on S810L MR mutant: paradoxically activate

## CS[C@@H]1CC2=CC(=O)CC[C@]2(C)[C@H]2CC[C@@]3(C)[C@@H](CC[C@@]34CCC(=O)O4)[C@H]12 [TMS, 7α-thiomethyl-spironolactone]
[13]; [18]
  mean half-life of spironolactone metabolite: 13.8 h
[13]; ref Gardiner et al. 1989
  peak absolute plasma concentration: 391 ng/mL
  peak relative plasma concentration: 50.3%

## C[C@]12CCC(=O)C=C1C=C[C@@H]1[C@@H]2CC[C@@]2(C)[C@H]1CC[C@@]21CCC(=O)O1 [canrenone]
[13]; [18]
  mean half-life of spironolactone metabolite: 16.5 h
[13]; multiple doses, ref Gardiner et al. 1989
  canrenone proportion of metabolites after spironolactone: about 23%
[13]; single dose, ref Merkus et al. 1983
  canrenone proportion of metabolites after spironolactone: about 15%
[13]; ref Gardiner et al. 1989
  peak absolute plasma concentration: 181 ng/mL
  peak relative plasma concentration: 23.3%

## CS[C@H]1[C@@H]2[C@H](CC[C@@]3(C)[C@H]2CC[C@@]32CCC(=O)O2)[C@@]2(C)CCC(=O)C=C2[C@@H]1O [HTMS, 6β-hydroxy-7α-thiomethyl-spironolactone]
[13]; [18]
  mean half-life of spironolactone metabolite: 15.0 h
[13]; ref Gardiner et al. 1989
  peak absolute plasma concentration: 125 ng/mL
  peak relative plasma concentration: 16.1%

## CC(=O)S[C@@H]1CC2=CC(=O)C=C[C@]2(C)[C@H]2CC[C@@]3(C)[C@@H]([C@@H]4C[C@@H]4[C@@]34CCC(=O)O4)[C@H]12 [mespirenone, 15β,16β-methylene-spironolactone]
[7]; healthy volunteers, ref Losert et al. 1986
  natriuretic potency relative to spironolactone: 6 fold

## CC(=O)S[C@@H]1CC2=CC(=O)CC[C@]2(C)[C@H]2CC[C@@]3(C)[C@@H](CC[C@@]34CCC(=O)O4)[C@H]12 [spironolactone, 7α-acetylthio-17α-hydroxy-3-oxopregn-4-ene-21-carboxylic acid γ-lactone]
[14]
  mortality in severe heart failure: mortality reduction
rats; 10, 30 and 100 mg/kg/day, ref Aldactone NDA 2008
  tumor finding, 104-week rat study: significant increases in hepatocellular adenomas and benign testicular and thyroid adenomas
rats; male rats, 500 mg/kg, 78 weeks, ref Mayer et al. 1988
  tumor finding, 78-week rat study: increased numbers of benign testicular adenomas
rats; rat, in vivo
  finding in chronic toxicity studies in rats: tumorigenic
[1]
  cardiorenal protection: only partial cardiorenal protection
[15]
  whole radioactivity in cardiac tissue: below the detection limit
Human plasma proteins; ref Chien et al. 1976
  bound to human plasma proteins: 94%
[16]
  protection from aldosterone-induced cardiac necrosis: protected
Human MR
  IC50: […]
[13]; [18]
  plasma half-life: less than 2 h
[13]; ref Gardiner et al. 1989
  peak absolute plasma concentration: […]
S810L MR mutant
  effect on S810L MR mutant: paradoxically activate
Dogs and monkeys
  tumorigenic or carcinogenic potential in chronic dog and monkey studies: no tumorigenic or carcinogenic potential
